# From patent publication US11872217B2, “Indanes as PD-L1 inhibitors” (CHEMOCENTRYX, INC., priority 2019, dated 2024)
# Target: human PD-L1 / Human PD-1 (Homo sapiens (Human), UniProt Q9NZQ7)
# Experiment: Enzyme-Linked Immunosorbent Assay (ELISA), PD-1/PD-L1 binding
# Settings: plates coated with human PD-L1; biotinylated human PD-1; absorbance at 450 nm
# Description: 96 Well plates were coated with 1 μg/mL of human PD-L1 (obtained from R&D) in PBS overnight at 4° C. The wells were then blocked with 2% BSA in PBS (W/V) with 0.05% TWEEN-20 for 1 hour at 37° C. The plates were washed 3 times with PBS/0.05% TWEEN-20 and the compounds were serial diluted (1:5) in dilution medium and added to the ELISA plates. Human PD-1 and biotin 0.3 μg/mL (ACRO Biosystems) were added and incubated for 1 hour at 37° C. then washed 3 times with PBS/0.05% TWEEN-20. A second block was performed with 2% BSA in PBS (W/V)/0.05% TWEEN-20 for 10 min at 37° C. and the plates were washed 3 times with PBS/0.05% TWEEN-20. Streptavidin-HRP was added for 1 hour at 37° C. then the plates were washed 3 times with PBS/0.05% TWEEN-20. TMB substrate was added and reacted for 20 min at 37° C. A stop solution (2 N aqueous H2SO4) was added. The absorbance was read at 450 nm using a micro-plate spectrophotometer. The results are shown in Table 1: IC50 values are provided as follows: from 100 up to 10,000 nM (+); less than 100 nM (++).
# Sequence of human PD-L1 / Human PD-1 (Q9NZQ7 19-239): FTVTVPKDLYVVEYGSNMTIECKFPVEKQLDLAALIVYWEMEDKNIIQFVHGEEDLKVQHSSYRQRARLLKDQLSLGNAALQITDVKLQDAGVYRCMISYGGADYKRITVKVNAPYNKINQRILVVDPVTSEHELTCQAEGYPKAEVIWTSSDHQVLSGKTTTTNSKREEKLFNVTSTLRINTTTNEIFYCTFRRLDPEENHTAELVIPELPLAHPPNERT
row,Structure (SMILES),IC50 [nM]
1,CCOc1cc(O[C@H]2CCc3c(-c4cccc5c4CC[C@@H]5Oc4cc(OCC)c(CN[C@@H](CO)C(=O)O)cc4Cl)cccc32)c(Cl)cc1CN[C@@H](CO)C(=O)O [Compound 1.045],< 100
2,N#Cc1cncc(COc2cc(O[C@H]3CCc4c(-c5cccc6c5CC[C@@H]6Oc5cc(OCc6cncc(C#N)c6)c(CN[C@@H](CCO)C(=O)O)cc5Cl)cccc43)c(Cl)cc2CN[C@@H](CCO)C(=O)O)c1 [Compound 1.046],< 100
3,CCOc1cc(O[C@H]2CCc3c(-c4cccc5c4CC[C@@H]5Oc4cc(OCC)c(CN[C@@H](CCO)C(=O)O)cc4Cl)cccc32)c(Cl)cc1CN[C@@H](CCO)C(=O)O [Compound 1.047],< 100
4,CCOc1cc(O[C@H]2CCc3c(-c4cccc5c4CC[C@@H]5Oc4cc(OCC)c(CN5CCC5(C)C)cc4Cl)cccc32)c(Cl)cc1CN1CCC1(C)C [Compound 1.048],< 100
5,CCOc1cc(O[C@H]2CCc3c(-c4cccc5c4CC[C@@H]5Oc4cc(OCC)c(CN(C)CCC(=O)O)cc4Cl)cccc32)c(Cl)cc1CN(C)CCC(=O)O [Compound 1.049],< 100
6,CCOc1cc(O[C@H]2CCc3c(-c4cccc5c4CC[C@@H]5Oc4cc(OCC)c(CN5CC6(CC(O)C6)C5)cc4Cl)cccc32)c(Cl)cc1CN1CC2(CC(O)C2)C1 [Compound 1.050],< 100
7,C[C@@](CO)(NCc1cc(Cl)c(O[C@H]2CCc3c(-c4cccc5c4CC[C@@H]5Oc4cc(OCc5cncc(C#N)c5)c(CN[C@@](C)(CO)C(=O)O)cc4Cl)cccc32)cc1OCc1cncc(C#N)c1)C(=O)O [Compound 1.051],< 100
